Results as given in patent publication US20240182867A1, “CHEMICAL REPROGRAMMING OF HUMAN SOMATIC CELLS INTO PLURIPOTENT CELLS” (Peking University, priority 2021, published 2024).
Where a name gives a salt, the structure may show the parent alone.

Experiments:
[1] = system: human fibroblasts; assay: Conversion of human fibroblasts into monolayer epithelial-like cells; assay type: cell-based; conditions: added into the combination CHIR99021, 616452 and TTNPB
Protocol: KnockOut™ DMEM (Gibco, 10829018) supplemented with 10% Knockout Serum Replacement (KSR) (Gibco, 10828028), 10% FBS, 1% GlutaMAX™, 1% NEAA, 1% Penicillin-Streptomycin, 0.055 mM 2-mercaptoethanol, 50 μg/ml L-Ascorbic acid 2-phosphate (Vc2P) (Sigma, A8960), 5 mM LiCl (Sigma, L4408), 1 mM Nicotinamide (NAM) (Sigma, 72340), 2 mg/mL AlbuMAX™-II (Gibco, 11021045) and the small molecules CHIR999021 (10 μM), 616452 (10 μM), TTNPB (2 μM), SAG (0.5 μM), ABT-869 (1 μM), Rock inhibitor (Y-27632 (2 μM) or Tzv (2 μM))
Cells were maintained at 37° C. with 21% 02 and 5% CO2. The induction medium was changed every 3-4 days. HEFs were seeded at a density of 1-1.5×10^4 cells per well of a 12-well plate in 15%. FBS-DMEM medium. Change the medium into stage I induction medium on the next day. For stage I induction, single layer epithelial-like cells would emerge at day 4-6 and approach 80%-100% confluence at day 8-12, then change the medium into stage II induction medium. For stage II induction, multi-layered colonies appeared after 8-12 days treatment and these cell colonies would continually grow larger. After totally 16-20 days' stage II treatment, change the medium into stage III condition. For stage III induction, 8-12 days treatment of stage III medium is required and then change the medium into stage IV condition. For stage IV induction, VPA (500 μM) was included in the first 4 days. Primary hCiPSC colonies would emerge after 6-8 days' treatment. At the end of stage IV, immunofluorescent staining of co-expression of OCT4 and NANOG was used to confirm the generation of primary hCiPSC colonies. Primary hCiPSC colony number was calculated as the number of the compact OCT4 positive colonies. Reprogramming efficiency was calculated as the number of primary hCiPSC colonies divided by the number of input HEFs.

[2] = system: human somatic cells; assay: Replacement of small molecules by others targeting the same pathway; assay type: cell-based; conditions: for replacement of IWP-2: Wnt inhibitor; for replacement of ABT 869: receptor tyrosine kinase inhibitor
Protocol: VPA (500 μM), Tranylcypromine (10 μM), DZNep (0.05 μM), and EPZ004777 (5 μM) were included in the first 4 days. In several experiments, to testing the reprogramming efficiency after removing each small molecules, the indicated small molecules were removed from the cocktails.

| Structure (SMILES) | generation of the epithelial-like cells [1] | replacement of IWP-2 [2] | further results |
| --- | --- | --- | --- |
| Cc1ccc(F)c(NC(=O)Nc2ccc(-c3cccc4[nH]nc(N)c34)cc2)c1 [ABT869, N-[4-(3-amino-1H-indazol-4-yl)phenyl]-N′-(2-fluoro-5-methylphenyl)-urea] | can facilitate | – | – |
| O=C(Nc1cccc2cccnc12)c1ccc(N2C(=O)[C@@H]3[C@H](C2=O)[C@@H]2C=C[C@H]3C2)cc1 [IWR-1] | – | able to replace IWP-2 | – |
| O=c1[nH]c(-c2ccc(C(F)(F)F)cc2)nc2c1CSCC2 [XAV-939, 3,5,7,8-Tetrahydro-2-[4-(trifluoromethyl)phenyl]-4H-thiopyrano[4,3-d]pyrimidin-4-one] | – | able to replace IWP-2 | – |
| Cc1cc(-c2ccc(CC(=O)Nc3ccc(-c4cccnc4)cc3)cc2)ccn1 [WNT-C59, 4-(2-Methyl-4-pyridinyl)-N-[4-(3-pyridinyl)phenyl]benzeneacetamide] | – | able to replace IWP-2 | – |
| CNC1CCC(N(Cc2cccc(-c3ccncc3)c2)C(=O)c2sc3ccccc3c2Cl)CC1 (centres unmarked) [SAG] | can facilitate | – | – |
| COc1cc2ncc(-c3ccccc3)nc2cc1OC [AG1296, 6,7-Dimethoxy-3-phenylquinoxaline] | – | – | replacement of ABT 869 [2]: able to replace ABT 869 |
| C[C@@H](N)[C@H]1CC[C@H](C(=O)Nc2ccncc2)CC1 [Y27632, (+)-(R)-trans-4-(1-aminoethyl)-N-(4-pyridyl)cyclohexanecarboxamide+++dihydrochloride] | can facilitate | – | – |
| Clc1ccc(Nc2nnc(Cc3ccncc3)c3ccccc23)cc1 [Valatanib] | – | – | replacement of ABT 869 [2]: able to replace ABT 869 |
